The source of these data is the supplement of paper PMC7840683.

The test system of the experiment is HepaRG. As to the kind of experiment: LDH release cytotoxicity, % of total lysis control; higher = more cytotoxic. The settings on record: 48 h. The gist of the method: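 Single-lot HepaRG cells in collagen I-coated 96-well plates were treated for 48 h in serum-free induction medium containing 0.5% DMSO with test chemicals in eight-point half-log series up to 100 µM. For total lysis, wells received 0.1% Triton X. LDH in 50 µL spent medium was assayed by resorufin fluorescence with CytoTox-ONE. Percent cytotoxicity was normalized to the on-plate vehicle and total lysis controls, with duplicates averaged.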

± gives the standard deviation of the averaged measurements.

For `Cc1oc2c(NC(=O)c3c(Cl)cccc3Cl)cccc2c1C(C)(C)O`, the LDH release cytotoxicity by setting is: (0.03162 µM) -1.37 ± 0.53%; (0.1 µM) -0.99 ± 1.4%; (0.3162278 µM) -1.56 ± 1.6%; (1 µM) -1.94 ± 1.6%; (3.16228 µM) -2.03 ± 0.99%; (10 µM) -0.5 ± 0.33%. Also, the LDH release cytotoxicity was determined as 13.1 ± 1.4% (31.6228 µM) and 33.7 ± 0.42% (100 µM).

For `CCCCCCCC[Si](OCC)(OCC)OCC` [Triethoxyoctylsilane], the LDH release cytotoxicity runs as follows: (0.03162 µM) -0.684 ± 0.49%; (0.1 µM) 0.171 ± 0.31%; (0.3162278 µM) -0.00576 ± 0.17%; (1 µM) -0.327 ± 0.22%; (3.16228 µM) 0.39 ± 0.57%; (10 µM) 0.433 ± 0.79%. Further, the LDH release cytotoxicity amounted to 0.376 ± 0.72% (31.6228 µM) and 1.59 ± 0.21% (100 µM).

In the case of `CCOC(=O)COc1ccc2c(c1)CC(NCC(O)c1cccc(Cl)c1)CC2` (configuration not stated), the LDH release cytotoxicity runs as follows: (0.02893 µM) -1.56 ± 0.66%; (0.0915 µM) 0.00613 ± 0.73%; (0.289348 µM) -0.98 ± 0.2%; (0.915 µM) -1.71 ± 0.69%; (2.89348 µM) -1.72 ± 0.32%; (9.15 µM) -1.13 ± 0.47%. Also, the LDH release cytotoxicity (28.9348 µM) was found to be 1.91 ± 1.4% and the LDH release cytotoxicity (91.5 µM) came out at 10.4 ± 2.2%.

As for `CCCCCCCCCCCC[N+](C)(C)C` [Dodecyltrimethylammonium chloride], the LDH release cytotoxicity (0.03162 µM) was -1.4 ± 0.15%; the LDH release cytotoxicity (0.1 µM) is -0.753 ± 0.6%; the LDH release cytotoxicity (0.3162278 µM) was -1.39 ± 0.13%; the LDH release cytotoxicity (1 µM) is -1.32 ± 0.19%; the LDH release cytotoxicity (3.16228 µM) is -1.23 ± 0.47%; the LDH release cytotoxicity (10 µM) is -0.28 ± 0.2%. Further, the LDH release cytotoxicity by setting is: (31.6228 µM) 0.602 ± 0.64%; (100 µM) 78 ± 0.7%.

Consider `CC(C)(C)c1cc(C(C)(C)C)c(O)c(C(C)(C)C)c1` [2,4,6-Tris(tert-butyl)phenol], for which the LDH release cytotoxicity reads like this: (0.03162 µM) -0.34 ± 0.36%; (0.1 µM) -0.143 ± 0.55%; (0.3162278 µM) -0.16 ± 0.35%; (1 µM) -0.404 ± 0.24%; (3.16228 µM) -0.476 ± 0.26%; (10 µM) 0.204 ± 1.6%. In addition, the LDH release cytotoxicity is -0.0327 ± 1.8% (31.6228 µM) and 0.75 ± 0.75% (100 µM).

With `CCCOC(=O)c1ccc(O)cc1` [Propylparaben], the LDH release cytotoxicity reads like this: (0.03162 µM) -0.197 ± 0.47%; (0.1 µM) -0.55 ± 1.1%; (0.3162278 µM) -0.664 ± 0.59%; (1 µM) -0.711 ± 0.26%; (3.16228 µM) -0.982 ± 0.64%; (10 µM) -0.514 ± 0.63%. The LDH release cytotoxicity is, setting by setting: (31.6228 µM) -0.541 ± 0.47%; (100 µM) 0.018 ± 1.1%.

As for `Cc1cccc(Nc2cc(Cl)nc(SCC(=O)O)n2)c1C` [Pirinixic acid], the LDH release cytotoxicity is -1.32 ± 0.91% (0.03162 µM); -1.59 ± 0.0083% (0.1 µM); -0.978 ± 0.7% (0.3162278 µM); -0.873 ± 0.35% (1 µM); -1.38 ± 0.058% (3.16228 µM); -1.43 ± 0.6% (10 µM). For the same compound, the LDH release cytotoxicity came to 0.274 ± 0.74% (31.6228 µM) and 2.17 ± 0.81% (100 µM).

Take `Cc1cc(C)c(O)c(C)c1` [2,4,6-Trimethylphenol]: the LDH release cytotoxicity is, setting by setting: (0.03162 µM) -0.941 ± 0.86%; (0.1 µM) -0.527 ± 0.093%; (0.3162278 µM) -0.0601 ± 1%; (1 µM) -1.16 ± 0.46%; (3.16228 µM) -0.619 ± 0.33%; (10 µM) -0.296 ± 0.75%. Also, the LDH release cytotoxicity is 0.116 ± 0.41% (31.6228 µM) and 0.371 ± 1.2% (100 µM).

Turning to `CC12CCC(=O)C=C1CCC1C2C(O)CC2(C)C(C(=O)CO)CCC12` (configuration not stated) [Corticosterone], the LDH release cytotoxicity by setting is: (0.03162 µM) -1.65 ± 0.13%; (0.1 µM) -0.683 ± 1.9%; (0.3162278 µM) 0.128 ± 1.4%; (1 µM) -1.19 ± 0.62%; (3.16228 µM) -0.76 ± 0.84%; (10 µM) -0.609 ± 0.51%. Also, the LDH release cytotoxicity is, setting by setting: (31.6228 µM) -0.274 ± 0.58%; (100 µM) 1.02 ± 0.92%.

With `O=C(CCCN1CCC(O)(c2ccc(Cl)cc2)CC1)c1ccc(F)cc1` [Haloperidol], the LDH release cytotoxicity (0.03162 µM) is -1.32 ± 0.62%; the LDH release cytotoxicity (0.1 µM) is -2.17 ± 0.32%; the LDH release cytotoxicity (0.3162278 µM) was -1.58 ± 0.27%; the LDH release cytotoxicity (1 µM) was -1.63 ± 0.15%; the LDH release cytotoxicity (3.16228 µM) is -2.03 ± 0.68%; the LDH release cytotoxicity (10 µM) is -1.44 ± 0.67%. Also, the LDH release cytotoxicity was determined as 4.34 ± 1.7% (31.6228 µM) and 62.2 ± 7.4% (100 µM).

For the compound `CON(C)C(=O)Nc1ccc(Cl)c(Cl)c1` [Linuron], the LDH release cytotoxicity is -1.04 ± 0.089% (0.03162 µM); -1.18 ± 0.7% (0.1 µM); -1.18 ± 0.5% (0.3162278 µM); -0.927 ± 0.94% (1 µM); -1.44 ± 0.95% (3.16228 µM); -0.708 ± 0.44% (10 µM). The LDH release cytotoxicity is, setting by setting: (31.6228 µM) 0.755 ± 1%; (100 µM) 0.919 ± 1.2%.

On to `Oc1cc(Cl)c(Cl)cc1Cl` [2,4,5-Trichlorophenol], for which the LDH release cytotoxicity was -1.03 ± 1.1% (0.03162 µM); -1.29 ± 0.21% (0.1 µM); -1.7 ± 1.3% (0.3162278 µM); -1.77 ± 0.63% (1 µM); -1.83 ± 0.36% (3.16228 µM); -1.75 ± 0.2% (10 µM). The LDH release cytotoxicity reads like this: (31.6228 µM) -1.87 ± 1.3%; (100 µM) -0.358 ± 0.97%.

As for `OCC(CO)(CBr)CBr` [Pentaerythritol dibromide], the LDH release cytotoxicity by setting is: (0.03162 µM) -0.95 ± 0.41%; (0.1 µM) -1.43 ± 0.67%; (0.3162278 µM) -2.05 ± 0.21%; (1 µM) -2.19 ± 0.11%; (3.16228 µM) -1.68 ± 0.31%; (10 µM) -1.56 ± 0.1%. For the same compound, the LDH release cytotoxicity runs as follows: (31.6228 µM) -0.856 ± 0.31%; (100 µM) 0.8 ± 1.4%.

For `CCC(=C(c1ccc(O)cc1)c1ccc(OCCN(C)C)cc1)c1ccccc1` [4-Hydroxytamoxifen], the LDH release cytotoxicity runs as follows: (0.031623 µM) -1.94 ± 1%; (0.1 µM) -3.22 ± 0.47%; (0.316228 µM) -3.61 ± 1.1%; (1 µM) -3.76 ± 0.11%; (3.16228 µM) -3.7 ± 0.16%; (10 µM) -3.42 ± 0.63%. The LDH release cytotoxicity runs as follows: (31.6228 µM) -3.18 ± 0.93%; (100 µM) -0.0951 ± 1.1%.
